According to the supplement of paper PMC10627819:

Tests used:
S. pneumoniae D39V [1] = test: fitness (endpoint OD595 vs no drug) (fraction); higher = more growth
In short: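 Fitness expresses the optical density reached at the stationary-phase transition as a fraction of the robust mean of no-drug control wells. It is capped at 1. Measurements were OD595 every 30 min for 14 h at 37 °C after inoculation of 384-well plates at OD595 0.01 (30 µl, or 55 µl for S. pneumoniae), minus the first reading.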

S. aureus DSM 20231 = test: Bliss interaction score (quartile over a dose matrix) (fitness difference); higher = more antagonism (negative = synergy)
In short: (§1)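 Fitness here means normalised growth, inferred for single drugs from the combination data. Growth was OD595 at entry into stationary phase, divided by the plate's robust no-drug mean and capped at 1. The Bliss score is observed minus expected fitness, with the expectation being the product, and its quartiles span technical, biological and donor/recipient replicates.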

S. pneumoniae D39V [2] = test: as above
In short: as §1

S. aureus Newman = test: as above
In short: as §1

B. subtilis 168 = test: as above
In short: as §1
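For Bliss interaction score (quartile over a dose matrix) in this document: first quartile when negative (synergy) and third quartile when positive (antagonism).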
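For fitness (endpoint OD595 vs no drug) in this document: OD595 on entry to stationary phase over no-drug wells; at most 1.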

O=C(O)c1cn(C2CC2)c2cc(N3CCNCC3)c(F)cc2c1=O [Ciprofloxacin] + O=C1CN(/N=C/c2ccc([N+](=O)[O-])o2)C(=O)N1 [Nitrofurantoin]
fitness, S. pneumoniae D39V [1]
Settings	partner 1.285 µg/mL	partner 2 µg/mL	partner 2.57 µg/mL	partner 4 µg/mL	partner 8 µg/mL
first compound 0.125 µg/mL	0.921	0.914	0.932	0.906	0.692
first compound 0.25 µg/mL	0.895	–	0.903	–	–
first compound 0.5 µg/mL	0.704	–	0.72	–	0.437

fitness, S. pneumoniae D39V [1], one replicate
Settings	partner 2 µg/mL	partner 4 µg/mL	partner 5.14 µg/mL	partner 8 µg/mL
first compound 0.125 µg/mL	–	–	0.877	–
first compound 0.25 µg/mL	0.731	0.679	0.879	0.56
first compound 0.5 µg/mL	–	–	0.627	–

Settings	Bliss interaction score
B. subtilis 168	0.129
S. aureus DSM 20231	0.0292
S. aureus Newman	-0.0569
S. pneumoniae D39V [2]	0.106

C[C@@H]1O[C@@H]1P(=O)(O)O [Fosfomycin] + C[C@@H](O)[C@H]1C(=O)N2C(C(=O)O)=C(SCCNC=N)C[C@H]12 [Imipenem]
fitness, S. pneumoniae D39V [1]
Settings	partner 0.005 µg/mL	partner 0.0065 µg/mL	partner 0.01 µg/mL	partner 0.013 µg/mL	partner 0.02 µg/mL	partner 0.026 µg/mL
first compound 1.25 µg/mL	0.965	0.922	0.944	0.925	0.92	0.901
first compound 2.5 µg/mL	0.911	0.87	0.887	0.881	0.911	0.814
first compound 5 µg/mL	0.797	0.608	0.786	0.726	0.747	0.74

Settings	Bliss interaction score
B. subtilis 168	0.0674
S. aureus DSM 20231	-0.0911
S. aureus Newman	0.0199
S. pneumoniae D39V [2]	0.0339

C[C@H]1c2cccc(O)c2C(=O)C2=C(O)[C@]3(O)C(=O)C(C(N)=O)=C(O)[C@@H](N(C)C)[C@@H]3[C@@H](O)[C@@H]21 [Doxycycline] + Clc1ccc(COC(Cn2ccnc2)c2ccc(Cl)cc2Cl)c(Cl)c1 [Miconazole]
fitness, S. pneumoniae D39V [1], one replicate
Settings	first compound 0.003875 µg/mL	first compound 0.00775 µg/mL	first compound 0.031 µg/mL	first compound 0.062 µg/mL
partner 1.25 µg/mL	0.936	0.934	0.852	0.731
partner 2.5 µg/mL	0.925	0.964	0.878	0.74
partner 5 µg/mL	0.954	0.96	0.854	0.689

fitness, S. pneumoniae D39V [1]
Settings	partner 1.073 µg/mL	partner 1.25 µg/mL	partner 2.145 µg/mL	partner 2.5 µg/mL	partner 4.29 µg/mL	partner 5 µg/mL
first compound 0.0155 µg/mL	0.947	0.923	0.96	0.936	0.895	0.911
first compound 0.031 µg/mL	0.937	–	0.95	–	0.912	–
first compound 0.062 µg/mL	0.895	–	0.908	–	0.835	–

Settings	Bliss interaction score
B. subtilis 168	0.0453
S. aureus DSM 20231	0.0575
S. aureus Newman	-0.0138
S. pneumoniae D39V [2]	0.0669

C[C@@H]1O[C@@H]1P(=O)(O)O [Fosfomycin] + Clc1ccc(COC(Cn2ccnc2)c2ccc(Cl)cc2Cl)c(Cl)c1 [Miconazole]
fitness, S. pneumoniae D39V [1]
Settings	partner 1.073 µg/mL	partner 1.25 µg/mL	partner 2.145 µg/mL	partner 2.5 µg/mL	partner 4.29 µg/mL	partner 5 µg/mL
first compound 1.25 µg/mL	0.988	0.946	0.967	0.946	0.879	0.968
first compound 2.5 µg/mL	0.926	0.905	0.879	0.933	0.789	0.929
first compound 5 µg/mL	0.758	0.769	0.7	0.753	0.678	0.776

Settings	Bliss interaction score
B. subtilis 168	-0.0714
S. aureus DSM 20231	0.0796
S. aureus Newman	0.103
S. pneumoniae D39V [2]	0.0499

COc1cccc2c1C(=O)c1c(O)c3c(c(O)c1C2=O)C[C@@](O)(C(=O)CO)C[C@@H]3O[C@H]1C[C@H](N)[C@H](O)[C@H](C)O1 [Doxorubicin] + CO[C@H]1/C=C/O[C@@]2(C)Oc3c(C)c(O)c4c(O)c(c(/C=N/N5CCN(C)CC5)c(O)c4c3C2=O)NC(=O)/C(C)=C\C=C\[C@H](C)[C@H](O)[C@@H](C)[C@@H](O)[C@@H](C)[C@H](OC(C)=O)[C@@H]1C [Rifampicin]
fitness, S. pneumoniae D39V [1]
Settings	first compound 0.25 µg/mL	first compound 0.5 µg/mL	first compound 1 µg/mL
partner 0.025 µg/mL	0.985	0.991	0.866
partner 0.05 µg/mL	–	0.94	–
partner 0.1 µg/mL	0.323	0.397	0.318

S. pneumoniae D39V [1], partner 0.2 µg/mL, one replicate
Settings	fitness
first compound 0.25 µg/mL	0
first compound 0.5 µg/mL	0
first compound 1 µg/mL	0

Settings	Bliss interaction score
B. subtilis 168	0.0845
S. aureus DSM 20231	-0.0908
S. aureus Newman	-0.029
S. pneumoniae D39V [2]	-0.058

C[C@@H]1O[C@@H]1P(=O)(O)O [Fosfomycin] + CO[C@H]1/C=C/O[C@@]2(C)Oc3c(C)c(O)c4c(O)c(c(/C=N/N5CCN(C)CC5)c(O)c4c3C2=O)NC(=O)/C(C)=C\C=C\[C@H](C)[C@H](O)[C@@H](C)[C@@H](O)[C@@H](C)[C@H](OC(C)=O)[C@@H]1C [Rifampicin]
fitness, S. pneumoniae D39V [1]
Settings	first compound 1.25 µg/mL	first compound 2.5 µg/mL	first compound 5 µg/mL
partner 0.025 µg/mL	0.987	0.969	0.806
partner 0.05 µg/mL	0.986	–	–
partner 0.1 µg/mL	–	–	0.318

S. pneumoniae D39V [1], partner 0.2 µg/mL, one replicate
Settings	fitness
first compound 1.25 µg/mL	0
first compound 2.5 µg/mL	0
first compound 5 µg/mL	0

Settings	Bliss interaction score
B. subtilis 168	-0.0436
S. aureus DSM 20231	0.036
S. aureus Newman	0.0181
S. pneumoniae D39V [2]	0.0822
